Data on 17 compounds can be found in PubChem BioAssay AID256 (DTP/NCI, 2004).

Values joined by “and” are separate entries in the source; they are usually repeats but may differ in a detail not shown here. Equal values may be shown once. Inconclusive results and toxic doses are left out.

The assay concerns CD2F1 mice, L1210 leukemia ip, survival T/C. The assay can be described thus: NCI In Vivo Anticancer Drug Screen. Data for tumor model L1210 Leukemia (intraperitoneal) in CD2F1 (CDF1) mice. The note with it: higher = longer survival. In a few lines:
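Each value reflects a quotient of treated over vehicle control outcomes in mice with a transplanted tumor.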

Where [1] appears, read: endpoint: mean survival time, dose: 50.0 mg/kg/injection, schedule: Q01DX009 (ip), vehicle: saline.
Setting [2] is: endpoint: mean survival time, dose: 100.0 mg/kg/injection, schedule: Q01DX009 (ip), vehicle: saline.
The mark [3] stands for this setting: endpoint: mean survival time, dose: 200.0 mg/kg/injection, schedule: Q01DX009 (ip), vehicle: saline.
Where [4] appears, read: endpoint: mean survival time, dose: 100.0 mg/kg/injection, schedule: Q01DX009 (ip), vehicle: saline with Tween-80.
Where [5] appears, read: endpoint: mean survival time, dose: 200.0 mg/kg/injection, schedule: Q01DX009 (ip), vehicle: saline with Tween-80.
Setting [6] is: endpoint: mean survival time, dose: 400.0 mg/kg/injection, schedule: Q01DX009 (ip), vehicle: saline with Tween-80.
The mark [7] stands for this setting: endpoint: mean survival time, dose: 100.0 mg/kg/injection, schedule: Q04DX003 (ip), vehicle: saline with Tween-80.
The mark [8] stands for this setting: endpoint: mean survival time, dose: 200.0 mg/kg/injection, schedule: Q04DX003 (ip), vehicle: saline with Tween-80.
Setting [9] is: endpoint: mean survival time, dose: 400.0 mg/kg/injection, schedule: Q04DX003 (ip), vehicle: saline with Tween-80.

On to `Cc1nc(N)nc(N)c1CCCOc1ccc(NC(=O)c2cccc(S(=O)(=O)F)c2)cc1`, for which the T/C by setting is: (endpoint: mean survival time, dose: 12.5 mg/kg/injection, schedule: Q01DX009 (ip), vehicle: saline) 101 % of control; (endpoint: mean survival time, dose: 25.0 mg/kg/injection, schedule: Q01DX009 (ip), vehicle: saline) 107 % of control; under setting [1], 107 % of control; under setting [2], 109 % of control; (endpoint: mean survival time, dose: 100.0 mg/kg/injection, schedule: Q#A X018 (ip), vehicle: saline) 90 % of control; under setting [3], 107 % of control.
Take `COC(=O)C1(C(=O)OC)C2C(=O)C3C(C21)C3(C(=O)OC(C)(C)C)C(=O)OC(C)(C)C` (configuration not stated): the T/C reads like this: under setting [4], 96 % of control; under setting [5], 94 % of control; under setting [6], 93 % of control.
Take `O=P(Oc1ccc(OP(=O)(N2CC2)N2CC2)cc1)(N1CC1)N1CC1`: the T/C is, setting by setting: (endpoint: mean survival time, dose: 58.0 mg/kg/injection, schedule: Q01DX001 (ip), vehicle: saline) 119 % of control; (endpoint: mean survival time, dose: 133.0 mg/kg/injection, schedule: Q01DX001 (ip), vehicle: saline) 152 % of control; (endpoint: mean survival time, dose: 200.0 mg/kg/injection, schedule: Q01DX001 (ip), vehicle: saline) 179 % of control; (endpoint: mean survival time, dose: 300.0 mg/kg/injection, schedule: Q01DX001 (ip), vehicle: saline) 89 % of control.
Regarding `NCc1ccc(O)c(O)c1`, the T/C runs as follows: under setting [1], 115 % of control; under setting [2], 118 % of control and 124 % of control; under setting [3], 123 % of control and 124 % of control; (endpoint: mean survival time, dose: 400.0 mg/kg/injection, schedule: Q01DX009 (ip), vehicle: saline) 114 % of control; (endpoint: mean survival time, dose: 800.0 mg/kg/injection, schedule: Q01DX009 (ip), vehicle: saline) 118 % of control; (endpoint: median survival time, dose: 28.13 mg/kg/injection, schedule: Q03HX024 (ip), vehicle: saline) 111 % of control. Further, the T/C by setting is: (endpoint: median survival time, dose: 56.25 mg/kg/injection, schedule: Q03HX024 (ip), vehicle: saline) 110 % of control; (endpoint: median survival time, dose: 300.0 mg/kg/injection, schedule: Q03HX024 (ip), vehicle: saline) 110 % of control.
Turning to `S=C([SH2+])[SH2+].S=C([SH2+])[SH2+].[Pt+2].c1ccc(C[P+](c2ccccc2)(c2ccccc2)c2ccccc2)cc1`, the T/C is, setting by setting: (endpoint: mean survival time, dose: 12.0 mg/kg/injection, schedule: Q04DX003 (ip), vehicle: saline) 87 % of control; (endpoint: mean survival time, dose: 25.0 mg/kg/injection, schedule: Q04DX003 (ip), vehicle: saline) 100 % of control; (endpoint: mean survival time, dose: 50.0 mg/kg/injection, schedule: Q04DX003 (ip), vehicle: saline) 94 % of control.
As to `COC(=O)C(Br)C(OC)c1ccc(C)cc1` (configuration not stated), the T/C reads like this: under setting [4], 94 % of control; (endpoint: mean survival time, dose: 100.0 mg/kg/injection, schedule: Q04DX003 (ip), vehicle: saline sonified) 95 % of control; under setting [5], 96 % of control; (endpoint: mean survival time, dose: 200.0 mg/kg/injection, schedule: Q04DX003 (ip), vehicle: saline sonified) 91 % of control; under setting [6], 90 % of control; (endpoint: mean survival time, dose: 400.0 mg/kg/injection, schedule: Q04DX003 (ip), vehicle: saline sonified) 101 % of control.
Consider `O=C(O)/C=C/C(=O)Nc1ccccc1Cl`, for which the T/C is 96 % of control under setting [4]; 94 % of control under setting [7]; 96 % of control under setting [5]; 105 % of control under setting [8]; 101 % of control under setting [9].
For the compound `COc1cccc(C#Cc2ccccc2NC(C)=O)c1`, the T/C under setting [4] was 91 % of control, the T/C under setting [5] is 86 % of control and the T/C under setting [6] is 94 % of control.
As for `CCOC(=O)Oc1c(OC)cc(C(=O)O[C@@H]2C[C@@H]3CN4CCc5c([nH]c6cc(OC)ccc56)[C@H]4C[C@@H]3[C@H](C(=O)OC)[C@H]2OC)cc1OC`, the T/C was 104 % of control (endpoint: mean survival time, dose: 25.0 mg/kg/injection, schedule: Q01DX009 (ip), vehicle: saline with Tween-80); 94 % of control under setting [4]; 103 % of control under setting [7].
Regarding `O=CN(CCNc1ccccc1)c1ccccc1`, the T/C was 96 % of control under setting [7], 101 % of control under setting [8] and 95 % of control under setting [9].
Turning to `C1=CC2C3C=CC(C3)C2C1` (configuration not stated), the T/C is, setting by setting: (endpoint: mean survival time, dose: 50.0 mg/kg/injection, schedule: Q01DX009 (ip), vehicle: saline with Tween-80) 94 % of control; under setting [4], 93 % of control; under setting [5], 98 % of control.
Regarding `CCc1nc(N)nc(N)n1`, the T/C by setting is: under setting [1], 104 % of control; under setting [2], 100 % of control; under setting [3], 104 % of control.
Turning to `CCn1c(=O)c2c(nc(Cl)n2C2OC(COC(C)=O)C(OC(C)=O)C(OC(C)=O)C2NC(C)=O)n(CC)c1=O` (configuration not stated), the T/C (endpoint: mean survival time, dose: 12.5 mg/kg/injection, schedule: Q01DX005 (ip), vehicle: distilled water + Tween-80) is 98 % of control; the T/C (endpoint: mean survival time, dose: 25.0 mg/kg/injection, schedule: Q01DX005 (ip), vehicle: distilled water + Tween-80) was 97 % of control; the T/C (endpoint: mean survival time, dose: 50.0 mg/kg/injection, schedule: Q01DX005 (ip), vehicle: distilled water + Tween-80) is 97 % of control; the T/C (endpoint: mean survival time, dose: 100.0 mg/kg/injection, schedule: Q01DX005 (ip), vehicle: distilled water + Tween-80) is 95 % of control; the T/C (endpoint: mean survival time, dose: 200.0 mg/kg/injection, schedule: Q01DX005 (ip), vehicle: distilled water + Tween-80) was 97 % of control.
As to `O=C1SCCC1NP(=O)(Oc1ccccc1)Oc1ccccc1` (configuration not stated), the T/C is 93 % of control under setting [4], 103 % of control under setting [5] and 93 % of control under setting [6].
In the case of `CC(C)(C#N)Nc1ccccc1`, the T/C was 100 % of control (endpoint: mean survival time, dose: 3.13 mg/kg/injection, schedule: Q01DX009 (ip), vehicle: saline); 91 % of control (endpoint: mean survival time, dose: 6.25 mg/kg/injection, schedule: Q01DX009 (ip), vehicle: saline with Tween-80); 94 % of control (endpoint: mean survival time, dose: 6.25 mg/kg/injection, schedule: Q01DX009 (ip), vehicle: saline); 94 % of control (endpoint: mean survival time, dose: 12.5 mg/kg/injection, schedule: Q01DX009 (ip), vehicle: saline with Tween-80).
In the case of `CCCCCCCCCCC(N)P(=O)(O)O` (configuration not stated), the T/C (endpoint: mean survival time, dose: 25.0 mg/kg/injection, schedule: Q04DX003 (ip), vehicle: saline with Tween-80) is 91 % of control and the T/C (endpoint: mean survival time, dose: 50.0 mg/kg/injection, schedule: Q04DX003 (ip), vehicle: saline with Tween-80) was 91 % of control.
In the case of `Brc1nc(-c2ccccc2)cc(-c2ccccc2)c1-c1ccccc1`, the T/C reads like this: (endpoint: mean survival time, dose: 100.0 mg/kg/injection, schedule: Q04DX002 (ip), vehicle: saline with Tween-80) 90 % of control; (endpoint: mean survival time, dose: 200.0 mg/kg/injection, schedule: Q04DX002 (ip), vehicle: saline with Tween-80) 90 % of control; (endpoint: mean survival time, dose: 400.0 mg/kg/injection, schedule: Q04DX002 (ip), vehicle: saline with Tween-80) 97 % of control.
